Measured values published in US20210369853A1, “TARGETED PROTEASE DEGRADATION PLATFORM” (EUBULUS BIOTHERAPEUTICS INC., priority 2018, published 2021).
Where two headings read alike, the source gives them in different places.

What was measured:
Format in all cases: cell-based
PBMC [1] = experiment: Cell proliferation experiment (EC50), PBMC
A549 [2] = experiment: Cell proliferation experiment (EC50), A549; conditions: Homo sapiens; A549 cells
PLK1 = biological target: T1, PLK1 (Homo sapiens, UniProt P53350); experiment: Western blot, protein degradation (DC50)
T1 construct: endogenous in cells
Summary of the method: (§1)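 Cells treated with compound, lysed in RIPA and resolved by SDS-PAGE (4%-12%); PVDF blots probed with primary antibody overnight at 4° C, then secondary antibody, and developed with ECL. Band intensities quantified by densitometry to give degradation.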

BRD4 = biological target: T2, BRD4 (Homo sapiens, UniProt O60885); experiment: Western blot, protein degradation (DC50)
T2 construct: endogenous in cells
Summary of the method: as §1

[3] = system: Human Small Cell Lung Cancer NCI-H82; experiment: Cell proliferation experiment (Alarm blue, 72 h, EC50); conditions: Homo sapiens, NCI-H82; NCIH82 cells
Summary of the method: (§2)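 Single-cell suspensions from log-phase cultures are plated, compound in complete medium is added at 5-fold dilution steps (two replicates each), and cells grow for 72 h. Viability is then measured as Alamar blue fluorescence, giving EC50 by sigmoidal fitting.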

Human Colon Cancer HT-29 = experiment: as above; conditions: Homo sapiens; HT-29 cells
Summary of the method: as §2

[4] = system: Human Ovarian Cancer SK-OV-3; experiment: as above; conditions: Homo sapiens, SK-OV-3; SKO3 cells
Summary of the method: as §2

[5] = system: Human Monocytic Leukemia THP-1; experiment: as above; conditions: THP-1 cells
Summary of the method: as §2

[6] = system: Human cervical adenocarcinoma cells Hela; experiment: as above; conditions: Homo sapiens
Summary of the method: as §2

[7] = system: Human Acute Lymphoblastic Leukemia Cells MOLT-4; experiment: as above; conditions: MOL4-4 cells
Summary of the method: as §2

[8] = system: Human Monocytic Leukemia MV4-11; experiment: as above; conditions: Homo sapiens
Summary of the method: as §2

[9] = system: Human Colon Cancer HCT-116; experiment: as above; conditions: Homo sapiens, HCT-116; HCT116 cells
Summary of the method: as §2

[10] = system: Human Glioma Cells U-87 MG; experiment: as above; conditions: Homo sapiens; U-87MG cells
Summary of the method: as §2

[11] = system: Human Acute Myelomonocytic Leukemia HL-60; experiment: as above; conditions: HL-60 cells
Summary of the method: as §2

[12] = system: Human Breast Cancer MDA-MB-231; experiment: as above; conditions: Homo sapiens; MDA-MB-231 cells
Summary of the method: as §2

HUVEC [13] = experiment: Cell proliferation experiment (EC50), HUVEC; conditions: Homo sapiens
U937 [14] = experiment: Cell proliferation experiment (EC50), U937; conditions: Homo sapiens, U-937; U937 cells
Daudi [15] = experiment: Cell proliferation experiment (EC50), Daudi; conditions: Homo sapiens; Daudi cells
HUVEC [16] = experiment: Cell proliferation experiment (EC50), HUVEC; conditions: Homo sapiens; remark: listed apart in the source
PBMC [17] = experiment: Cell proliferation experiment (EC50), PBMC; remark: listed apart in the source
U937 [18] = experiment: Cell proliferation experiment (EC50), U937; conditions: Homo sapiens, U-937; U937 cells; remark: listed apart in the source
Daudi [19] = experiment: Cell proliferation experiment (EC50), Daudi; conditions: Homo sapiens; Daudi cells; remark: listed apart in the source
A549 [20] = experiment: Cell proliferation experiment (EC50), A549; conditions: Homo sapiens; A549 cells; remark: listed apart in the source
HUVEC [21] = experiment: Cell proliferation experiment (EC50), HUVEC; conditions: Homo sapiens; remark: listed apart in the source
PBMC [22] = experiment: Cell proliferation experiment (EC50), PBMC; remark: listed apart in the source
Daudi [23] = experiment: Cell proliferation experiment (EC50), Daudi; conditions: Homo sapiens; Daudi cells; remark: listed apart in the source
[24] = 6 h, western blot, read-out: PLK1 DC50 (6 h)
[25] = 24 h, western blot, read-out: PLK1 DC50 (24 h)
[26] = 6 h, western blot, read-out: BRD4 DC50 (6 h)
[27] = 24 h, western blot, read-out: BRD4 DC50 (24 h)
[28] = 6 h, read-out: PLK1 DC50 (nM) (6 h)
[29] = 24 h, read-out: PLK1 DC50 (nM) (24 h)
[30] = 6 h, read-out: BRD4 DC50 (nM) (6 h)
[31] = 24 h, read-out: BRD4 DC50 (nM) (24 h)

T1 sequence (P53350 whole entry): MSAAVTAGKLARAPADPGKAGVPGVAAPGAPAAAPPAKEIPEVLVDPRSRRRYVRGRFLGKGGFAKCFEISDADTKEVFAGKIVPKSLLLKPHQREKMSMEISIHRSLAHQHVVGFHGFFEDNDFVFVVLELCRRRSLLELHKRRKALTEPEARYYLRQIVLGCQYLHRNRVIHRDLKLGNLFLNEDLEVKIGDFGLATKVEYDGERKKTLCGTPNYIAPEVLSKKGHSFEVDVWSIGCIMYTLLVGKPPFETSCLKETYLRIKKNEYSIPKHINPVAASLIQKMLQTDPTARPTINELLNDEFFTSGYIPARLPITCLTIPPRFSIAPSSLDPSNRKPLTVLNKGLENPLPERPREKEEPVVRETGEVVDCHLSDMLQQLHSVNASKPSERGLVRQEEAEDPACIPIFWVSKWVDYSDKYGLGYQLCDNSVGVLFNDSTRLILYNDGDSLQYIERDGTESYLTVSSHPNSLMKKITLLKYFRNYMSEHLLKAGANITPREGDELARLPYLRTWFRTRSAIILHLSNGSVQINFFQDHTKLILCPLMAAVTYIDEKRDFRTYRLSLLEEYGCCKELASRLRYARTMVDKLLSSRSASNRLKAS

CC[C@@H]1C(=O)N(C)c2cnc(Nc3ccc(C(=O)NC4CCN(CCNCCOCC(=O)Nc5cccc6c5CN(C5CCC(=O)NC5=O)C6=O)CC4)cc3OC)nc2N1Cc1ccc(Cl)s1 (some centres unmarked) [UB-180711]
EC50 (PBMC [1]): 100 to 1000 nM | EC50 (A549 [2]): 100 to 1000 nM | DC50 (PLK1; [24]): 10 to 100 nM | DC50 (PLK1; [25]): < 10 nM | DC50 (BRD4; [26]): < 10 nM | DC50 (BRD4; [27]): < 10 nM | EC50 [3]: 100 to 1000 nM | EC50 (Human Colon Cancer HT-29): 100 to 1000 nM | EC50 [4]: 100 to 1000 nM | EC50 [5]: 100 to 1000 nM | EC50 [6]: 100 to 1000 nM | EC50 [7]: 100 to 1000 nM | EC50 ([8]; MV4;11 cells): < 10 nM | EC50 [9]: 100 to 1000 nM | EC50 [10]: 100 to 1000 nM | EC50 [11]: 100 to 1000 nM | EC50 [12]: 100 to 1000 nM | EC50 (HUVEC [13]): 100 to 1000 nM | EC50 (U937 [14]): 100 to 1000 nM | EC50 (Daudi [15]): 100 to 1000 nM

CC[C@@H]1C(=O)N(C)c2cnc(Nc3ccc(C(=O)NCc4cn(CCNCCC(=O)Nc5cccc6c5CN(C5CCC(=O)NC5=O)C6=O)nn4)cc3OC)nc2N1Cc1ccc(Cl)s1 (some centres unmarked) [UB-180714]
EC50 (HUVEC [16]): 100 to 1000 nM | DC50 (PLK1; [28]): 10 to 100 nM | DC50 (PLK1; [29]): < 10 nM | DC50 (BRD4; [30]): < 10 nM | DC50 (BRD4; [31]): < 10 nM | EC50 ([8]; MV4-11, MV4;11 cells): 10 to 100 nM | EC50 (PBMC [17]): 100 to 1000 nM

CC[C@@H]1C(=O)N(C)c2cnc(Nc3ccc(C(=O)NC4CCN(CCOCCNCC(=O)Nc5cccc6c5CN(C5CCC(=O)NC5=O)C6=O)CC4)cc3OC)nc2N1Cc1ccc(Cl)s1 (some centres unmarked) [UB-180725]
EC50 (U937 [18]): 100 to 1000 nM | EC50 (Daudi [19]): 100 to 1000 nM | EC50 (A549 [20]): 100 to 1000 nM | DC50 (PLK1; [28]): < 10 nM | DC50 (PLK1; [29]): < 10 nM | DC50 (BRD4; [30]): < 10 nM | DC50 (BRD4; [31]): < 10 nM | EC50 [3]: 100 to 1000 nM | EC50 (Human Colon Cancer HT-29): 100 to 1000 nM | EC50 [4]: 100 to 1000 nM | EC50 [5]: 100 to 1000 nM | EC50 [6]: 100 to 1000 nM | EC50 ([8]; MV4-11, MV4;11 cells): 10 to 100 nM | EC50 [9]: 100 to 1000 nM | EC50 [10]: 100 to 1000 nM | EC50 [11]: 100 to 1000 nM | EC50 [12]: 100 to 1000 nM

O=C1CCC(N2Cc3c(NC(=O)CNCCOCCOCCOCCNC(=O)[C@]4(Cc5cccc(Nc6nccs6)n5)CC[C@@H](Oc5cccc(Cl)c5F)CC4)cccc3C2=O)C(=O)N1 (some centres unmarked) [UB-180730]
EC50 (HUVEC [16]): > 1000 nM | DC50 (PLK1; [28]): < 10 nM | EC50 ([8]; MV4-11, MV4;11 cells): 10 to 100 nM | EC50 [9]: 100 to 1000 nM | EC50 [11]: > 1000 nM | EC50 (PBMC [17]): > 1000 nM

O=C1CCC(N2Cc3c(NC(=O)CCOCCOCCOCCNC(=O)c4ccc(Nc5ncc6c(n5)-c5ccc(Cl)cc5C(c5c(F)cccc5F)=NC6)cc4)cccc3C2=O)C(=O)N1 (centres unmarked) [UB-180535]
EC50 (HUVEC [21]): > 1000 nM | EC50 (PBMC [22]): > 1000 nM | EC50 ([8]; MV4-11, MV4;11 cells): 10 to 100 nM | EC50 [9]: > 1000 nM | EC50 [11]: > 1000 nM

CC[C@@H]1CN(C)c2cnc(Nc3ccc(C(=O)NCCOCCOCCOCCNCCC(=O)Nc4cccc5c4CN(C4CCC(=O)NC4=O)C5=O)cc3OC)nc2N1Cc1ccc(Cl)s1 (some centres unmarked) [UB-180701]
EC50 (PBMC [1]): > 1000 nM | EC50 (A549 [2]): 100 to 1000 nM | DC50 (PLK1; [24]): 10 to 100 nM | DC50 (PLK1; [25]): < 10 nM | DC50 (BRD4; [26]): < 10 nM | DC50 (BRD4; [27]): < 10 nM | EC50 [3]: 100 to 1000 nM | EC50 (Human Colon Cancer HT-29): 100 to 1000 nM | EC50 [4]: 100 to 1000 nM | EC50 [5]: 100 to 1000 nM | EC50 [6]: 100 to 1000 nM | EC50 [7]: 100 to 1000 nM | EC50 ([8]; MV4;11 cells): < 10 nM | EC50 [9]: 100 to 1000 nM | EC50 [10]: 100 to 1000 nM | EC50 [11]: 100 to 1000 nM | EC50 [12]: 100 to 1000 nM | EC50 (HUVEC [13]): > 1000 nM | EC50 (U937 [14]): 100 to 1000 nM | EC50 (Daudi [15]): 100 to 1000 nM

CC[C@@H]1C(=O)N(C)c2cnc(Nc3ccc(C(=O)NCCOCCOCCOCCC(=O)Nc4cccc5c4CN(C4CCC(=O)NC4=O)C5=O)cc3OC)nc2N1C1CCCC1 (some centres unmarked) [UB-180605]
EC50 (Daudi [23]): 100 to 1000 nM | EC50 [3]: 100 to 1000 nM | EC50 (Human Colon Cancer HT-29): 100 to 1000 nM | EC50 ([8]; MV4-11, MV4;11 cells): 10 to 100 nM | EC50 [10]: 100 to 1000 nM
